In the CheMixHub viscosity set:

Assay: xn = mol fraction of the nth substance listed

C[N+](C)(C)CCO.O=C([O-])CCCC[C@@H]1SC[C@@H]2NC(=O)N[C@@H]21 + O
viscosity [mPa·s], 100 kPa
Details	x1 = 0.0009415	x1 = 0.001329	x1 = 0.001899	x1 = 0.002797	x1 = 0.003833	x1 = 0.005474
293.15 K	1.044	1.058	1.079	1.111	1.146	1.2
298.15 K	0.927	0.939	0.957	0.984	1.014	1.06
303.15 K	0.829	0.84	0.855	0.879	0.905	0.944
308.15 K	0.747	0.756	0.77	0.79	0.812	0.846
313.15 K	0.678	0.686	0.698	0.716	0.735	0.765

NC(=O)c1ccccc1O + O
viscosity [mPa·s], 100 kPa
Details	x1 = 7.39e-05	x1 = 0.000108	x1 = 0.000143	x1 = 0.00018	x1 = 0.0002156	x1 = 0.0002516
293.15 K	1.008	1.011	1.013	1.015	1.016	1.017
298.15 K	0.896	0.899	0.901	0.902	0.903	0.904
303.15 K	0.803	0.805	0.807	0.808	0.81	0.811
308.15 K	0.725	0.727	0.728	0.73	0.731	0.732
313.15 K	0.659	0.661	0.662	0.663	0.664	0.665

O=C(O)[C@@H](O)[C@@H](O)C(=O)O + O
298 K, 101.3 kPa
Details	viscosity [mPa·s]
x1 = 0.000823	0.9012
x1 = 0.00165	0.9144
x1 = 0.003567	0.9399
x1 = 0.005454	0.9656
x1 = 0.006888	0.99
x1 = 0.00872	1.018
x1 = 0.01004	1.034
x1 = 0.01181	1.066

O=N[O-].[Na+] + O
viscosity [mPa·s]
Details	x1 = 0.0182	x1 = 0.0368	x1 = 0.0558	x1 = 0.0753	x1 = 0.0989	x2 = 0.85	x2 = 0.87	x2 = 0.89	x2 = 0.92	x2 = 0.94
293.15 K, 101.33 kPa	–	–	–	–	–	2.834	2.248	1.903	1.494	1.374
298.15 K, 101 kPa	0.97	1.09	1.24	1.43	1.73	–	–	–	–	–
313.15 K, 101 kPa	0.72	0.82	0.93	1.05	1.26	–	–	–	–	–

O=S(=O)([N-]S(=O)(=O)C(F)(F)C(F)(F)F)C(F)(F)F.[Li+] + O
101 kPa, x1 = 0.3
Details	viscosity [mPa·s]
293.15 K	145
298.15 K	114
303.15 K	89.8
313.15 K	58.8
323.15 K	40.2

[Al+3].[Cl-].[Cl-].[Cl-] + O
Details	viscosity [mPa·s]
293.15 K, 101 kPa, x1 = 0.039	5.58
